# Source: patent US7459481B2, “Stimulation of CPT-1 as a means to reduce weight” (The Johns Hopkins University School of Medicine Licensing …, priority 2002, dated 2008)
# “And” between values parts separate entries of the source, which are not always exact repeats. Equal values may be shown once.
# Tests used:
# FAS = FAS (Homo sapiens, UniProt P49327); experiment: FAS activity, malonyl-CoA dependent oxidation of NADPH at OD340; assay type: biochemical; settings: read-out: FAS Inhibition (IC50) (converted)
# Method: (§1) FAS activity was measured by monitoring the malonyl-CoA dependent oxidation of NADPH spectrophotometrically at OD340 in 96-well plates, as described in International Patent Publication WO 2004/005277. The IC50 for the compounds against FAS was determined by plotting the change in OD340 against time for each inhibitor concentration tested and determining the rate of change by linear regression. The concentration of a particular compound yielding 50% inhibition of the rate for FAS in the absence of the compound is the IC50. Stimulation of CPT-1 activity was measured as described in Example 2, except the cells were preincubated with the compound for 2 hours at the concentrations indicated in the table. Stimulation of Fatty acid oxidation was determined as described in Example 1 for cells preincubated with the compounds at the concentrations indicated in the table.
# MCF-7 cells [1] = experiment: Fatty acid oxidation ([1-14C]palmitate to 14CO2) in MCF-7 cells; assay type: cell-based, human
# Method: Human breast cancer cell line MCF-7 was obtained from the American Type Culture Collection. 1×10^6 MCF-7 cells were plated in T-25 flasks in triplicate and incubated overnight at 37° C. Drugs were then added as indicated diluted from 5 mg/ml stock in DMSO. After 2 hours, medium with drugs was removed and cells were preincubated for 30 min. with 1.5 ml of the following buffer: 114 mM NaCl, 4.7 mM KCl, 1.2 mM KH2PO4, 1.2 mM MgSO4, glucose 11 mM. After preincubation, 200 μl of assay buffer was added containing: 114 mM NaCl, 4.7 mM KCl, 1.2 mM KH2PO4, 1.2 mM MgSO4, glucose 11 mM, 2.5 mM palmitate (containing with 10 μCi of [1-^14C]palmitate) bound to albumin, 0.8 mM L-carnitine, and cells were incubated at 37° C. for 2 h. Following the incubation, 400 μl of benzethonium hydrochloride was added to the center well to collect released ^14CO2. Immediately, the reaction was stopped by adding 500 μl of 7% perchloric acid to the cells. The flasks with wells were then incubated for 2 h at 37° C. after which the benzothonium hydrochloride was removed and counted for ^14C. Blanks were prepared by adding 500 μl of 7% perchloric acid to the cells prior to the incubation with the assay buffer for 2 h.
# as §1
# CPT-1 = target: T1, CPT-1 (Homo sapiens, UniProt P50416); experiment: CPT-1 activity assay in MCF-7 cells; assay type: cell-based; settings: for CPT-1 Stimulation (% Control): cells preincubated 2 hours; for CPT-1 activity, % of control: FIG. 4
# T1 construct: endogenous in cells; host or cells: MCF-7 human breast cancer cells
# T1 sequence (P50416 1-773): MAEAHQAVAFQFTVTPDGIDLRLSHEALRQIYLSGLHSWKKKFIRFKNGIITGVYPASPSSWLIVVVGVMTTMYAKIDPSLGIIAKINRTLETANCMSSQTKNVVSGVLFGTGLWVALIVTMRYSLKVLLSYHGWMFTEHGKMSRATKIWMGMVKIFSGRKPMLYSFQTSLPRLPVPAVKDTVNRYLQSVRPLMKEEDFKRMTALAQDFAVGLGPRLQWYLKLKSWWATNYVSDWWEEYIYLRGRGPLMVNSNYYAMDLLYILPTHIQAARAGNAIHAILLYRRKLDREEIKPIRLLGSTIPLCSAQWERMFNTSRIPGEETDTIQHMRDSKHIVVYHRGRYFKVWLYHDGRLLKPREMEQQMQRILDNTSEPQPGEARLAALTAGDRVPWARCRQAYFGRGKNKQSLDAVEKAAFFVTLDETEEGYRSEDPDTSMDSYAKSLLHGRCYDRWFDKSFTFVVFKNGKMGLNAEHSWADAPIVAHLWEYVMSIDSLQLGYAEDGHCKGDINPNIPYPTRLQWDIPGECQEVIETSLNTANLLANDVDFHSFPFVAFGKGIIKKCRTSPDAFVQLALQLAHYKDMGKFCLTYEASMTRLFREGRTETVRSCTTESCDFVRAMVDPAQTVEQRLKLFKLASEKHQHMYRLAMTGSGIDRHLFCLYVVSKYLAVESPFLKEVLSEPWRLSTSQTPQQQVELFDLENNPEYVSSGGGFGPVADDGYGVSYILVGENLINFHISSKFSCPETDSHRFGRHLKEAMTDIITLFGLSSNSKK
# Method: CPT-1 activity was assayed in MCF-7 cells by the following published procedure: MCF-7 cells were plated in DMEM with 10% fetal bovine serum at 10^6 cells in 24-well plates in triplicate. Following overnight incubation at 37° C., the medium was removed and replaced with 700 μl of assay medium consisting of: 50 mM imidazole, 70 mM KCl, 80 mM sucrose, 1 mM EGTA, 2 mM MgCl2, 1 mM DTT, 1 mM KCN, 1 mM ATP, 0.1% fatty acid free bovine serum albumin, 70 μM palmitoyl-CoA, 0.25 μCi [methyl-^14C]L-carnitine, 40 μg digitonin with or without 20 μM malonyl-CoA. After incubation for 6 minutes at 37° C., the reaction was stopped by the addition of 500 μl of ice-cold 4 M perchloric acid. Cells were then harvested and centrifuged at 13,000×g for 5 min. The pellet was washed with 500 μl ice cold 2 mM perchloric acid and centrifuged again. The resulting pellet was resuspended in 800 μl dH2O and extracted with 150 μl of butanol. The butanol phase was counted by liquid scintillation and represents the acylcarnitine derivative.
# MCF-7 cells were treated with C75 at 10 or 20 μg/mL for 1 hr before CPT-1 activity was assayed. The assay was performed with the C75 and malonyl-CoA concentrations indicated (“M” indicates malonyl-CoA at 20 uM). Malonyl-CoA treatment alone caused a 46% reduction in CPT-1 activity similar to the previous experiment (see FIG. 2; p=0.02, two-tailed t-test, Prism 3.0). The level of malonyl-CoA inhibition of the CPT-1 activity is consistent with the activity of the liver isoform of CPT-1 in MCF-7 cells. The Ki of malonyl-CoA for the liver isoform of CPT-1 is ˜7 μM while the Ki for the muscle isoform of CPT-1 is 0.07 μM. Thus, MCF-7 cells express predominantly the liver isoform of CPT-1 (consistent with the immunoblot analysis).
# as §1
# MCF-7 cells [2] = settings: cited from earlier work
# MCF-7 cells [3] = settings: literature; cited from earlier work
# liver isoform of CPT-1 = target: T2, liver isoform of CPT-1 (Homo sapiens, UniProt P50416); settings: cited from earlier work
# T2 sequence (P50416 1-773): T1 sequence (P50416 1-773)
# muscle isoform of CPT-1 = target: T3, muscle isoform of CPT-1 (Homo sapiens, UniProt Q92523); settings: cited from earlier work
# T3 sequence (Q92523 1-772): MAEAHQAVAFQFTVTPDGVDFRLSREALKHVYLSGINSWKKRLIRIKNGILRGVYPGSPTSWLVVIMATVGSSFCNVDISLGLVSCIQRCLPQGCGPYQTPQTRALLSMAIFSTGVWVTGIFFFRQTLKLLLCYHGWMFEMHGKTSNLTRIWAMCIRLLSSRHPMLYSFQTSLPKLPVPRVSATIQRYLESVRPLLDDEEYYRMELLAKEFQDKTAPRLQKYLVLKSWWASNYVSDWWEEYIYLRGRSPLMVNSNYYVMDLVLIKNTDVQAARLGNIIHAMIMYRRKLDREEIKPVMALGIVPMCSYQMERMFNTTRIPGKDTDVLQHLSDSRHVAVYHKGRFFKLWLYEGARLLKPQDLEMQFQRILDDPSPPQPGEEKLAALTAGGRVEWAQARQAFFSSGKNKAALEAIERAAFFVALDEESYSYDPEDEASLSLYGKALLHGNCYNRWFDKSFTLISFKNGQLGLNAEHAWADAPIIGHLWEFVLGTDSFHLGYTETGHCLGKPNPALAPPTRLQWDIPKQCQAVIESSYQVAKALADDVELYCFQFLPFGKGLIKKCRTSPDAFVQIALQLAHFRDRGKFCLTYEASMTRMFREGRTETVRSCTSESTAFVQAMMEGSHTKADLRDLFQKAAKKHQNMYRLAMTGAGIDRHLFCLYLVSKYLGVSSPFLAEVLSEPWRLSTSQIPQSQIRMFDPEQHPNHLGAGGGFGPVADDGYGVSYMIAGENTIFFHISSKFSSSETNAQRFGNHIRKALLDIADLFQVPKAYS
# [4] = MCF-7, 20 μg/ml 1 hr before assay
# Sequence of FAS (P49327 whole entry): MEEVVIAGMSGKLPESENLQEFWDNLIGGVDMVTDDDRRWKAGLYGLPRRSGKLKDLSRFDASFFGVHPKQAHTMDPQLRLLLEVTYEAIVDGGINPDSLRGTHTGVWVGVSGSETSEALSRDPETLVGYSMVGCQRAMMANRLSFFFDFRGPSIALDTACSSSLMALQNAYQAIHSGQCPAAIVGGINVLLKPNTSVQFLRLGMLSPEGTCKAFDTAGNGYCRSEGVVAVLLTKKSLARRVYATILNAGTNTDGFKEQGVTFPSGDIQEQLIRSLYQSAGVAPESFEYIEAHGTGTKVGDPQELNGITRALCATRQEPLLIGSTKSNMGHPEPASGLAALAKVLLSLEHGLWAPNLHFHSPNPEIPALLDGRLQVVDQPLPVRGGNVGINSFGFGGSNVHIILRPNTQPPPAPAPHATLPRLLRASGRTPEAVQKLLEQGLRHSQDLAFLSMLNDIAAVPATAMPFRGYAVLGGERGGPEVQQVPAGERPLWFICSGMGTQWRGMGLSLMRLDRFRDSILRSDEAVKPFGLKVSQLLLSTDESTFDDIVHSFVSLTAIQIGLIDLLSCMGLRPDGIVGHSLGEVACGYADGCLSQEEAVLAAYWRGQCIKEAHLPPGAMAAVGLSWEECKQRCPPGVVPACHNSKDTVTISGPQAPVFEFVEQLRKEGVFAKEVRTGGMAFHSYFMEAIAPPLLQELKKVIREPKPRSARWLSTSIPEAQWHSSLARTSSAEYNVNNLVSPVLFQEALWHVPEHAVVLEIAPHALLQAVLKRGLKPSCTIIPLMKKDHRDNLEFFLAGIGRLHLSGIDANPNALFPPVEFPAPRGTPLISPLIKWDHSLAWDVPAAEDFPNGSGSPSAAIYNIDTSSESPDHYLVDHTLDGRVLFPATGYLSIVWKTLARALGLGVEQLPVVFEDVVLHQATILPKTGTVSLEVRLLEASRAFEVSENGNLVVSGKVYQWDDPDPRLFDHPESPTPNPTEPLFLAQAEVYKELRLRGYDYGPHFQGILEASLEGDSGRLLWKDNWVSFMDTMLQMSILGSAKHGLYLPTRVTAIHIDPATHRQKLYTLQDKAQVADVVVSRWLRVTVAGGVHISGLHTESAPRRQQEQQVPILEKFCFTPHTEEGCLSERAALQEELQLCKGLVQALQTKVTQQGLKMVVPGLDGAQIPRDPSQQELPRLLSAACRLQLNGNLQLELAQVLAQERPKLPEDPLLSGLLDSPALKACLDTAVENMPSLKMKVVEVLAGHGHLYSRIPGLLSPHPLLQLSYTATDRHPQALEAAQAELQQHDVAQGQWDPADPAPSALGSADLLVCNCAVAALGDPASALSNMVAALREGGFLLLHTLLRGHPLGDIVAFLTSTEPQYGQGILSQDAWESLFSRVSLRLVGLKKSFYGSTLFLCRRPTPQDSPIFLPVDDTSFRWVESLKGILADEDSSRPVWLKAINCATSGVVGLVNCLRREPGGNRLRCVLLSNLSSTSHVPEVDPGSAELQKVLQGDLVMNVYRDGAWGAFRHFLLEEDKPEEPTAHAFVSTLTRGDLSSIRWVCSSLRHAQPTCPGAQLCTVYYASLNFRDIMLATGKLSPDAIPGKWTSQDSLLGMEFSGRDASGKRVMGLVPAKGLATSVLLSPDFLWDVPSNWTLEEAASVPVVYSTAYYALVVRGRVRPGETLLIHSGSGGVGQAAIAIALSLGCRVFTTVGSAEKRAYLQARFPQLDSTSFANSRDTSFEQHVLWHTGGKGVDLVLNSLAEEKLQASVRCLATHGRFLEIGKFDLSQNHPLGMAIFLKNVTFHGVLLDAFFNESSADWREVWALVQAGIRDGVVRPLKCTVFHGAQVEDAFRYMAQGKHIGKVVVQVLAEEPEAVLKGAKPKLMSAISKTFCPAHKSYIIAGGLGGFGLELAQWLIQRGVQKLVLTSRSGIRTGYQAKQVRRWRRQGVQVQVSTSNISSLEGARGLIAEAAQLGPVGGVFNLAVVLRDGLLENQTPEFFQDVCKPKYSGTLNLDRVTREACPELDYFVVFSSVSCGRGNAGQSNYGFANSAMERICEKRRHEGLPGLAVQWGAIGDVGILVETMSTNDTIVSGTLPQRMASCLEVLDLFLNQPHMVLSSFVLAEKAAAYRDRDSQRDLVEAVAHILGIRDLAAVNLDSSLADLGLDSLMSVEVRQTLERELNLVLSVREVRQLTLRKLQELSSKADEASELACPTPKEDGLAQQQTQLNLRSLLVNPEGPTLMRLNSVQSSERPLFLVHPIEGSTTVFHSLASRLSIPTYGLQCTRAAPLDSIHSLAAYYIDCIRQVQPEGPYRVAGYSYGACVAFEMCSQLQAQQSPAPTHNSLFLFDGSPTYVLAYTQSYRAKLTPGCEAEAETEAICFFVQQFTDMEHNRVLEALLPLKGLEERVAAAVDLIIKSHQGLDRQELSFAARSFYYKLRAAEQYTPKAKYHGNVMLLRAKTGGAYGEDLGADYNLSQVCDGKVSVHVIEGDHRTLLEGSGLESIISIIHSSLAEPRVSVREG
compound,measurement,setting,value
CCCCCCCC[C@]1(C)SC(=O)C=C1OC(=O)OCC (racemic),IC50,FAS,14.6 µM
same,Fatty Acid Oxidation (% Control),MCF-7 cells [1]; 10 μg/mL,140 % Control
same,CPT-1 Stimulation (% Control),CPT-1; 20 μg/mL,150 % Control
C=CCNC(=O)[C@@H]1C(=C)C(=O)O[C@H]1CCCCCCCC (racemic),IC50,FAS,163 µM
same,Fatty Acid Oxidation (% Control),MCF-7 cells [1]; 0.625 μg/mL,400 % Control
same,CPT-1 Stimulation (% Control),CPT-1; 10 μg/mL,400 % Control
C=C1C(=O)O[C@@H](CCCCCCCC)[C@@H]1C(=O)NCC(=O)O (racemic),IC50,FAS,167 µM
same,Fatty Acid Oxidation (% Control),MCF-7 cells [1]; 40 μg/mL,500 % Control
same,CPT-1 Stimulation (% Control),CPT-1; 80 μg/mL,500 % Control
C=CCC1(CC=C)C(=O)S[C@@](C)(CCCCCCCC)C1=O (racemic),Fatty Acid Oxidation (% Control),MCF-7 cells [1]; 10 μg/mL,175 % Control
same,CPT-1 Stimulation (% Control),CPT-1; 20 μg/mL,175 % Control
"C/C=C/C/C=C/CCC(=O)[C@H]1O[C@H]1C(N)=O [Cerulenin, reference compound]",effect on malonyl-CoA amount,MCF-7 cells [2],increases
same,effect on fatty acid oxidation,MCF-7 cells [3],inhibition of fatty acid oxidation
C=C1C(=O)OC(CCCCCCCCCCCC)C1C(=O)O (centres unmarked) [Compound C12],"CPT-1 activity, % of control",CPT-1; [4],186 % of control
C=C1C(=O)OC(CCCCCCCCCCCCCCCC)C1C(=O)O (centres unmarked) [Compound C16],"CPT-1 activity, % of control",CPT-1; [4],138 % of control
"CCOC(=O)[C@@]1(CCCCCCOc2ccc(Cl)cc2)CO1 [Etomoxir, reference compound]","fatty acid oxidation, % of control","MCF-7 cells [1]; MCF-7, FIG. 1",32 % of control
"CC(C)(COP(=O)(O)OP(=O)(O)OC[C@H]1O[C@@H](n2cnc3c(N)ncnc32)[C@H](O)[C@@H]1OP(=O)(O)O)[C@@H](O)C(=O)NCCC(=O)NCCSC(=O)CC(=O)O [Malonyl-CoA, reference compound]",Ki,liver isoform of CPT-1,~7 µM
same,Ki,muscle isoform of CPT-1,0.07 µM
same,"CPT-1 activity, % of control","CPT-1; MCF-7, 20 μM in reaction buffer",64 % of control
same,reduction (inhibition) of CPT-1 activity,"CPT-1; malonyl-CoA alone at 20 μM in the assay, MCF-7",46% and ~70%
